{"source": "patent US20230086702A1", "about": "“SUBSTITUTED 2-AMINO-PYRAZOLYL-[1,2,4]TRIAZOLO[1,5A]PYRIDINE DERIVATIVES AND USE THEREOF” (The Johns Hopkins University, priority 2019, published 2023)", "key": {"DLK": {"molecular_target": "T1, DLK (Homo sapiens, UniProt Q12852)", "T1 construct": "10 nM DLK, catalytic domain, Carna Biosiences; purchased Carna Biosciences ('Carna Biosiences' [sic])", "T1 sequence (Q12852 125-366 limits assumed)": "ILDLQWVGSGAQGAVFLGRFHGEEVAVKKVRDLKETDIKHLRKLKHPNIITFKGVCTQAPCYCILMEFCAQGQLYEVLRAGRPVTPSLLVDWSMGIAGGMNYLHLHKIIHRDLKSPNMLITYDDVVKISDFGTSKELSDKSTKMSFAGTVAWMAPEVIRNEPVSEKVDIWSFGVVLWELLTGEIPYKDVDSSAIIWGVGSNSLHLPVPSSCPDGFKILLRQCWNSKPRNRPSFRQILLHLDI", "assay": "DLK biochemical assay (TR-FRET, MKK7 phosphorylation)", "how_it_was_run": "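DLK catalytic domain (10 nM) phosphorylates His-MKK7 (15 nM) at 60 μM ATP for 90 min at RT in pH 7.5 Hepes buffer (final concentrations). Phospho-T275/S277 is detected by TR-FRET (Eu anti-phospho donor, XL665 anti-His acceptor) after 16 h at 37° C (1536 format) or 4° C (384 format).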"}, "LZK": {"molecular_target": "T2, LZK (Homo sapiens, UniProt O43283)", "T2 construct": "10 nM LZK, catalytic domain, Carna Biosiences in assay buffer; purchased Carna Biosciences ('Carna Biosiences' [sic])", "T2 sequence (O43283 168-409 limits assumed)": "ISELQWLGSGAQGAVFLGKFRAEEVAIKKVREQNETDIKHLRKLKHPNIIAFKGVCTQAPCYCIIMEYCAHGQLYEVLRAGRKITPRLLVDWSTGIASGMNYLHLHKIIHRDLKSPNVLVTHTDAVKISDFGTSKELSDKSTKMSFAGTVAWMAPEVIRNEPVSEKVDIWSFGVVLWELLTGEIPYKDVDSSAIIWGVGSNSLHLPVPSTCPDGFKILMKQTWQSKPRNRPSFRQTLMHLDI", "assay": "LZK biochemical assay (TR-FRET, MKK7 phosphorylation)", "how_it_was_run": "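LZK catalytic domain (10 nM) phosphorylates His-MKK7 (15 nM) with 15 µM ATP, all final, for 90 min at RT in HEPES buffer pH 7.5 with MgCl2. Phospho-T275/S277 detected by TR-FRET (Eu anti-phospho donor, XL665 anti-His acceptor) after 16 h at 32 °C in EDTA stop buffer. Inhibition lowers the 665/Eu ratio.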"}}, "data": [{"compound": "CS(=O)(=O)c1cccc(-c2cc(-c3cnn(C(c4ccc(C(F)(F)F)nc4)C4CCOCC4)c3)cn3nc(N)nc23)c1", "note": "(single isomer, unassigned) [II-14, 8-[3-(Methylsulfonyl)phenyl]-6-(1-{tetrahydro-2H-pyran-4-yl[6-(trifluoromethyl)pyridin-3-yl]methyl}-1H-pyrazol-4-yl)[1,2,4]triazolo[1,5-a]pyridin-2-amine]", "values": [{"measurement": "IC50", "setting": "DLK", "value": 0.6, "unit": "nM"}, {"measurement": "IC50", "setting": "LZK", "value": 1.3, "unit": "nM"}]}, {"compound": "CS(=O)(=O)c1cccc(-c2cc(-c3cnn(C(c4ccc(C(F)(F)F)nc4)C4CCOCC4)c3)cn3nc(N)nc23)c1", "note": "(single isomer, unassigned) [II-15, 8-[3-(Methylsulfonyl)phenyl]-6-(1-{tetrahydro-2H-pyran-4-yl[6-(trifluoromethyl)pyridin-3-yl]methyl}-1H-pyrazol-4-yl)[1,2,4]triazolo[1,5-a]pyridin-2-amine]", "values": [{"measurement": "IC50", "setting": "DLK", "value": 0.9, "unit": "nM"}, {"measurement": "IC50", "setting": "LZK", "value": 2.7, "unit": "nM"}]}, {"compound": "CCS(=O)(=O)c1cccc(-c2cc(-c3cnn(C(c4ccc(C(F)(F)F)nc4)C4CCOCC4)c3)cn3nc(N)nc23)c1", "note": "(single isomer, unassigned) [II-17, 8-[3-(Ethylsulfonyl)phenyl]-6-(1-{tetrahydro-2H-pyran-4-yl[6-(trifluoromethyl)pyridin-3-yl]methyl}-1H-pyrazol-4-yl)[1,2,4]triazolo[1,5-a]pyridin-2-amine]", "values": [{"measurement": "IC50", "setting": "DLK", "value": 2.1, "unit": "nM"}, {"measurement": "IC50", "setting": "LZK", "value": 11, "unit": "nM"}]}, {"compound": "CCS(=O)(=O)c1cccc(-c2cc(-c3cnn(C(c4ccc(C(F)(F)F)nc4)C4CCOCC4)c3)cn3nc(N)nc23)c1", "note": "(single isomer, unassigned) [II-18, 8-[3-(Ethylsulfonyl)phenyl]-6-(1-{tetrahydro-2H-pyran-4-yl[6-(trifluoromethyl)pyridin-3-yl]methyl}-1H-pyrazol-4-yl)[1,2,4]triazolo[1,5-a]pyridin-2-amine]", "values": [{"measurement": "IC50", "setting": "DLK", "value": 0.3, "unit": "nM"}, {"measurement": "IC50", "setting": "LZK", "value": 1.5, "unit": "nM"}]}, {"compound": "Nc1nc2c(-c3cccc(S(=O)(=O)C(F)(F)F)c3)cc(-c3cnn(C(c4ccc(C(F)(F)F)nc4)C4CCOCC4)c3)cn2n1", "note": "(single isomer, unassigned) [II-20, 6-(1-{Tetrahydro-2H-pyran-4-yl[6-(trifluoromethyl)pyridin-3-yl]methyl}-1H-pyrazol-4-yl)-8-{3-[(trifluoromethyl)sulfonyl]phenyl}[1,2,4]triazolo[1,5-a]pyridin-2-amine]", "values": [{"measurement": "IC50", "setting": "DLK", "value": 71, "unit": "nM"}, {"measurement": "IC50", "setting": "LZK", "value": 140, "unit": "nM"}]}, {"compound": "Nc1nc2c(-c3cccc(S(=O)(=O)C(F)(F)F)c3)cc(-c3cnn(C(c4ccc(C(F)(F)F)nc4)C4CCOCC4)c3)cn2n1", "note": "(single isomer, unassigned) [II-21, 6-(1-{Tetrahydro-2H-pyran-4-yl[6-(trifluoromethyl)pyridin-3-yl]methyl}-1H-pyrazol-4-yl)-8-{3-[(trifluoromethyl)sulfonyl]phenyl}[1,2,4]triazolo[1,5-a]pyridin-2-amine]", "values": [{"measurement": "IC50", "setting": "DLK", "value": 7.6, "unit": "nM"}, {"measurement": "IC50", "setting": "LZK", "value": 14, "unit": "nM"}]}, {"compound": "CN(C)c1cccc(-c2cc(-c3cnn(C(c4ccc(C(F)(F)F)nc4)C4CCOCC4)c3)cn3nc(N)nc23)c1", "note": "(single isomer, unassigned) [II-23, 8-[3-(Dimethylamino)phenyl]-6-(1-{tetrahydro-2H-pyran-4-yl[6-(trifluoromethyl)pyridin-3-yl]methyl}-1H-pyrazol-4-yl)[1,2,4]triazolo[1,5-a]pyridin-2-amine]", "values": [{"measurement": "IC50", "setting": "DLK", "value": 4.5, "unit": "nM"}, {"measurement": "IC50", "setting": "LZK", "value": 9.2, "unit": "nM"}]}, {"compound": "CN(C)c1cccc(-c2cc(-c3cnn(C(c4ccc(C(F)(F)F)nc4)C4CCOCC4)c3)cn3nc(N)nc23)c1", "note": "(single isomer, unassigned) [II-24, 8-[3-(Dimethylamino)phenyl]-6-(1-{tetrahydro-2H-pyran-4-yl[6-(trifluoromethyl)pyridin-3-yl]methyl}-1H-pyrazol-4-yl)[1,2,4]triazolo[1,5-a]pyridin-2-amine]", "values": [{"measurement": "IC50", "setting": "DLK", "value": 0.5, "unit": "nM"}, {"measurement": "IC50", "setting": "LZK", "value": 2.3, "unit": "nM"}]}, {"compound": "CCC(c1ccc(C(F)(F)F)nc1)n1cc(-c2cc(-c3ccnc(OC(F)F)c3)c3nc(N)nn3c2)cn1", "note": "(single isomer, unassigned) [II-26, 8-[2-(Difluoromethoxy)pyridin-4-yl]-6-(1-{1-[6-(trifluoromethyl)pyridin-3-yl]propyl}-1H-pyrazol-4-yl)[1,2,4]triazolo[1,5-a]pyridin-2-amine]", "values": [{"measurement": "IC50", "setting": "DLK", "value": 210, "unit": "nM"}, {"measurement": "IC50", "setting": "LZK", "value": 150, "unit": "nM"}]}, {"compound": "CCC(c1ccc(C(F)(F)F)nc1)n1cc(-c2cc(-c3ccnc(OC(F)F)c3)c3nc(N)nn3c2)cn1", "note": "(single isomer, unassigned) [II-27, 8-[2-(Difluoromethoxy)pyridin-4-yl]-6-(1-{1-[6-(trifluoromethyl)pyridin-3-yl]propyl}-1H-pyrazol-4-yl)[1,2,4]triazolo[1,5-a]pyridin-2-amine]", "values": [{"measurement": "IC50", "setting": "DLK", "value": 30, "unit": "nM"}, {"measurement": "IC50", "setting": "LZK", "value": 55, "unit": "nM"}]}, {"compound": "CC(C)C(c1ccc(C(F)(F)F)nc1)n1cc(-c2cc(-c3ccnc(C(F)(F)F)c3)n3nc(N)nc3c2)cn1", "note": "(single isomer, unassigned) [II-29, 7-(1-{2-Methyl-1-[6-(trifluoromethyl)pyridin-3-yl]propyl}-1H-pyrazol-4-yl)-5-[2-(trifluoromethyl)pyridin-4-yl][1,2,4]triazolo[1,5-a]pyridin-2-amine]", "values": [{"measurement": "IC50", "setting": "DLK", "value": 120, "unit": "nM"}, {"measurement": "IC50", "setting": "LZK", "value": 97, "unit": "nM"}]}, {"compound": "CC(C)C(c1ccc(C(F)(F)F)nc1)n1cc(-c2cc(-c3ccnc(C(F)(F)F)c3)n3nc(N)nc3c2)cn1", "note": "(single isomer, unassigned) [II-30, 7-(1-{2-Methyl-1-[6-(trifluoromethyl)pyridin-3-yl]propyl}-1H-pyrazol-4-yl)-5-[2-(trifluoromethyl)pyridin-4-yl][1,2,4]triazolo[1,5-a]pyridin-2-amine]", "values": [{"measurement": "IC50", "setting": "DLK", "value": 8.7, "unit": "nM"}, {"measurement": "IC50", "setting": "LZK", "value": 6.7, "unit": "nM"}]}, {"compound": "CCC(c1ccc(C(F)(F)F)nc1)n1cc(-c2cc(-c3ccnc(C4(F)CC4)c3)n3nc(N)nc3c2)cn1", "note": "(single isomer, unassigned) [II-32, 5-[2-(1-Fluorocyclopropyl)pyridin-4-yl]-7-(1-{1-[6-(trifluoromethyl)pyridin-3-yl]propyl}-1H-pyrazol-4-yl)[1,2,4]triazolo[1,5-a]pyridin-2-amine]", "values": [{"measurement": "IC50", "setting": "DLK", "value": 66, "unit": "nM"}, {"measurement": "IC50", "setting": "LZK", "value": 16, "unit": "nM"}]}, {"compound": "CCC(c1ccc(C(F)(F)F)nc1)n1cc(-c2cc(-c3ccnc(C4(F)CC4)c3)n3nc(N)nc3c2)cn1", "note": "(single isomer, unassigned) [II-33, 5-[2-(1-Fluorocyclopropyl)pyridin-4-yl]-7-(1-{1-[6-(trifluoromethyl)pyridin-3-yl]propyl}-1H-pyrazol-4-yl)[1,2,4]triazolo[1,5-a]pyridin-2-amine]", "values": [{"measurement": "IC50", "setting": "DLK", "value": 17, "unit": "nM"}, {"measurement": "IC50", "setting": "LZK", "value": 7.6, "unit": "nM"}]}, {"compound": "Nc1nc2cc(-c3cnn(C(c4ccc(C(F)(F)F)nc4)C4CCOCC4)c3)cc(-c3ccnc(C(F)(F)F)c3)n2n1", "note": "(single isomer, unassigned) [II-35, 7-(1-{Tetrahydro-2H-pyran-4-yl[6-(trifluoromethyl)pyridin-3-yl]methyl}-1H-pyrazol-4-yl)-5-[2-(trifluoromethyl)pyridin-4-yl][1,2,4]triazolo[1,5-a]pyridin-2-amine]", "values": [{"measurement": "IC50", "setting": "DLK", "value": 63, "unit": "nM"}, {"measurement": "IC50", "setting": "LZK", "value": 44, "unit": "nM"}]}, {"compound": "Nc1nc2cc(-c3cnn(C(c4ccc(C(F)(F)F)nc4)C4CCOCC4)c3)cc(-c3ccnc(C(F)(F)F)c3)n2n1", "note": "(single isomer, unassigned) [II-36, 7-(1-{Tetrahydro-2H-pyran-4-yl[6-(trifluoromethyl)pyridin-3-yl]methyl}-1H-pyrazol-4-yl)-5-[2-(trifluoromethyl)pyridin-4-yl][1,2,4]triazolo[1,5-a]pyridin-2-amine]", "values": [{"measurement": "IC50", "setting": "DLK", "value": 6.3, "unit": "nM"}, {"measurement": "IC50", "setting": "LZK", "value": 7.9, "unit": "nM"}]}]}
